Measurements reported in patent US20260365682A1, “MODULATORS OF TNF-ALPHA ACTIVITY” (Forward Therapeutics, Inc., priority 2022, published 2026).

Each compound was assayed against T1, TNF-α (Homo sapiens, UniProt P01375) (assay: TNF-α Induced HEK Blue Cellular Assay (secreted alkaline phosphatase expression, QUANTI-Blue)). Settings: HEK Blue TNFα reporter cells; TNF-α 100 μg/ml; 24 hrs at 37° C.; inhibition of secreted alkaline phosphatase; read-out: IC50 value.
T1 construct: purchased R&D 210-TA-020/CF
Assay type: cell-based
Procedure, shortened: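 HEK Blue TNFα reporter cells (10,000/well) in DMEM with 10% FBS received compound ([…] to 0.5 nM final) and TNF-α at […] final for 24 h at 37° C. Secreted alkaline phosphatase read with QUANTI-Blue at 620 nm. IC50 came from a 4-parameter logistic fit after normalising to unstimulated and stimulated DMSO controls.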

T1 sequence (P01375 77-233 limits assumed): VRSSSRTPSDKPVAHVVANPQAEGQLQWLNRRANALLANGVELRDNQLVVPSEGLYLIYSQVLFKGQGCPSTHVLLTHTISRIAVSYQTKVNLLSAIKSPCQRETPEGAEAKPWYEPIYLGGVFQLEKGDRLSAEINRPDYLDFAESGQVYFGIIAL

Row | Compound | IC50 [nM]
1 | [2H]C([2H])([2H])N1C(=O)c2cccc(OC(F)F)c2[C@H]2C[C@@H]1c1nc3ccc(C#CCOCC)cc3n12 [Example 43, (7R,14R)-1-(difluoromethoxy)-11-(3-ethoxyprop-1-yn-1-yl)-6-(methyl-d3)-6,7-dihydro-7,14-methanobenzo[f]benzo[4,5]imidazo[1,2-a][1,4]diazocin-5(14H)-one] | < 100
2 | [2H]C([2H])([2H])N1C(=O)c2cccc(OC(F)F)c2[C@H]2C[C@@H]1c1nc3ccc(C#Cc4ncns4)cc3n12 [Example 45, (7R,14R)-11-((1,2,4-thiadiazol-5-yl)ethynyl)-1-(difluoromethoxy)-6-(methyl-d3)-6,7-dihydro-7,14-methanobenzo[f]benzo[4,5]imidazo[1,2-a][1,4]diazocin-5(14H)-one] | < 100
3 | [2H]C([2H])([2H])N1C(=O)c2cccc(OC(F)F)c2[C@H]2C[C@@H]1c1nc3ccc(C#C[C@@H](C)N)cc3n12 [Example 50, (7R,14R)-11-((R)-3-aminobut-1-yn-1-yl)-1-(difluoromethoxy)-6-(methyl-d3)-6,7-dihydro-7,14-methanobenzo[f]benzo[4,5]imidazo[1,2-a][1,4]diazocin-5(14H)-one] | < 100
4 | [2H]C([2H])([2H])N1C(=O)c2cccc(OC(F)F)c2[C@H]2C[C@@H]1c1nc3ccc(C#CC4CCNCC4)cc3n12 [Example 52, (7R,14R)-1-(difluoromethoxy)-6-(methyl-d3)-11-(piperidin-4-ylethynyl)-6,7-dihydro-7,14-methanobenzo[f]benzo[4,5]imidazo[1,2-a][1,4]diazocin-5(14H)-one] | < 100
5 | [2H]C([2H])([2H])N1C(=O)c2cccc(OC(F)F)c2[C@H]2C[C@@H]1c1nc3ccc(C#CCOC(C)(C)C)cc3n12 [Example 56, (7R,14R)-11-(3-(tert-butoxy)prop-1-yn-1-yl)-1-(difluoromethoxy)-6-(methyl-d3)-6,7-dihydro-7,14-methanobenzo[f]benzo[4,5]imidazo[1,2-a][1,4]diazocin-5(14H)-one] | < 100
6 | [2H]C([2H])([2H])N1C(=O)c2cccc(OC(F)F)c2[C@H]2C[C@@H]1c1nc3ccc(C#CC4CCN(C)CC4)cc3n12 [Example 57, (7R,14R)-1-(difluoromethoxy)-6-(methyl-d3)-11-((1-methylpiperidin-4-yl)ethynyl)-6,7-dihydro-7,14-methanobenzo[f]benzo[4,5]imidazo[1,2-a][1,4]diazocin-5(14H)-one] | 100 to 1000
7 | [2H]C([2H])([2H])N1C(=O)c2cccc(OC(F)F)c2[C@H]2C[C@@H]1c1nc3ccc(C#C[C@@H]4CCCN4)cc3n12 [Example 59, (7R,14R)-1-(difluoromethoxy)-6-(methyl-d3)-11-(((S)-pyrrolidin-2-yl)ethynyl)-6,7-dihydro-7,14-methanobenzo[f]benzo[4,5]imidazo[1,2-a][1,4]diazocin-5(14H)-one] | 10000 to 30000
8 | [2H]C([2H])([2H])N1C(=O)c2cccc(OC(F)F)c2[C@H]2C[C@@H]1c1nc3ccc(C#CC4CCCNC4)cc3n12 (stereo partly drawn) [Example 60, (7R,14R)-1-(difluoromethoxy)-6-(methyl-d3)-11-(piperidin-3-ylethynyl)-6,7-dihydro-7,14-methanobenzo[f]benzo[4,5]imidazo[1,2-a][1,4]diazocin-5(14H)-one] | < 100
9 | [2H]C([2H])([2H])N1C(=O)c2cccc(OC(F)F)c2[C@H]2C[C@@H]1c1nc3ccc(C#CCN(C)C)cc3n12 [Example 61, (7R,14R)-1-(difluoromethoxy)-11-(3-(dimethylamino)prop-1-yn-1-yl)-6-(methyl-d3)-6,7-dihydro-7,14-methanobenzo[f]benzo[4,5]imidazo[1,2-a][1,4]diazocin-5(14H)-one] | 100 to 1000
10 | [2H]C([2H])([2H])N1C(=O)c2cccc(OC(F)F)c2[C@H]2C[C@@H]1c1nc3ccc(C#CCN(CC)CC)cc3n12 [Example 62, (7R,14R)-11-(3-(diethylamino)prop-1-yn-1-yl)-1-(difluoromethoxy)-6-(methyl-d3)-6,7-dihydro-7,14-methanobenzo[f]benzo[4,5]imidazo[1,2-a][1,4]diazocin-5(14H)-one] | < 100

Next, values leading:

Row | IC50 [nM] | Compound
11 | < 100 | [2H]C([2H])([2H])N1C(=O)c2cccc(OC(F)F)c2[C@H]2C[C@@H]1c1nc3ccc(C#CC)cc3n12 [Example 39, (7R,14R)-1-(difluoromethoxy)-6-(methyl-d3)-11-(prop-1-yn-1-yl)-6,7-dihydro-7,14-methanobenzo[f]benzo[4,5]imidazo[1,2-a][1,4]diazocin-5(14H)-one]
12 | < 100 | [2H]C([2H])([2H])N1C(=O)c2cccc(OC(F)F)c2[C@H]2C[C@@H]1c1nc3ccc(C#Cc4cnoc4)cc3n12 [Example 41, (7R,14R)-1-(difluoromethoxy)-11-(isoxazol-4-ylethynyl)-6-(methyl-d3)-6,7-dihydro-7,14-methanobenzo[f]benzo[4,5]imidazo[1,2-a][1,4]diazocin-5(14H)-one]
13 | 100 to 1000 | [2H]C([2H])([2H])N1C(=O)c2cccc(OC(F)F)c2[C@H]2C[C@@H]1c1nc3ccc(C#CCOC)cc3n12 [Example 42, (7R,14R)-1-(difluoromethoxy)-11-(3-methoxyprop-1-yn-1-yl)-6-(methyl-d3)-6,7-dihydro-7,14-methanobenzo[f]benzo[4,5]imidazo[1,2-a][1,4]diazocin-5(14H)-one]
14 | < 100 | [2H]C([2H])([2H])N1C(=O)c2cccc(OC(F)F)c2[C@H]2C[C@@H]1c1nc3ccc(C#C)cc3n12 [Example 44, (7R,14R)-1-(difluoromethoxy)-11-ethynyl-6-(methyl-d3)-6,7-dihydro-7,14-methanobenzo[f]benzo[4,5]imidazo[1,2-a][1,4]diazocin-5(14H)-one]
15 | 100 to 1000 | [2H]C([2H])([2H])N1C(=O)c2cccc(OC(F)F)c2[C@H]2C[C@@H]1c1nc3ccc(C#Cc4nnc(CNC)s4)cc3n12 [Example 46, (7R,14R)-1-(difluoromethoxy)-6-(methyl-d3)-11-((5-((methylamino)methyl)-1,3,4-thiadiazol-2-yl)ethynyl)-6,7-dihydro-7,14-methanobenzo[f]benzo[4,5]imidazo[1,2-a][1,4]diazocin-5(14H)-one]
16 | 10000 to 30000 | [2H]C([2H])([2H])N1C(=O)c2cccc(OC(F)F)c2[C@H]2C[C@@H]1c1nc3ccc(C#CC4CCCCN4)cc3n12 (stereo partly drawn) [Example 47, (7R,14R)-1-(difluoromethoxy)-6-(methyl-d3)-11-(piperidin-2-ylethynyl)-6,7-dihydro-7,14-methanobenzo[f]benzo[4,5]imidazo[1,2-a][1,4]diazocin-5(14H)-one]
17 | < 100 | [2H]C([2H])([2H])N1C(=O)c2cccc(OC(F)F)c2[C@H]2C[C@@H]1c1nc3ccc(C#CC4CCOCC4)cc3n12 [Example 48, (7R,14R)-1-(difluoromethoxy)-6-(methyl-d3)-11-((tetrahydro-2H-pyran-4-yl)ethynyl)-6,7-dihydro-7,14-methanobenzo[f]benzo[4,5]imidazo[1,2-a][1,4]diazocin-5(14H)-one]
18 | 100 to 1000 | [2H]C([2H])([2H])N1C(=O)c2cccc(OC(F)F)c2[C@H]2C[C@@H]1c1nc3ccc(C#CC4CCCCO4)cc3n12 (stereo partly drawn) [Example 49, (7R,14R)-1-(difluoromethoxy)-6-(methyl-d3)-11-((tetrahydro-2H-pyran-2-yl)ethynyl)-6,7-dihydro-7,14-methanobenzo[f]benzo[4,5]imidazo[1,2-a][1,4]diazocin-5(14H)-one]
19 | < 100 | [2H]C([2H])([2H])N1C(=O)c2cccc(OC(F)F)c2[C@H]2C[C@@H]1c1nc3ccc(C#C[C@H](C)N)cc3n12 [Example 51, (7R,14R)-11-((S)-3-aminobut-1-yn-1-yl)-1-(difluoromethoxy)-6-(methyl-d3)-6,7-dihydro-7,14-methanobenzo[f]benzo[4,5]imidazo[1,2-a][1,4]diazocin-5(14H)-one]
20 | < 100 | [2H]C([2H])([2H])N1C(=O)c2cccc(OC(F)F)c2[C@H]2C[C@@H]1c1nc3ccc(C#CC4CCCO4)cc3n12 (stereo partly drawn) [Example 53, (7R,14R)-1-(difluoromethoxy)-6-(methyl-d3)-11-((tetrahydrofuran-2-yl)ethynyl)-6,7-dihydro-7,14-methanobenzo[f]benzo[4,5]imidazo[1,2-a][1,4]diazocin-5(14H)-one]
21 | 10000 to 30000 | [2H]C([2H])([2H])N1C(=O)c2cccc(OC(F)F)c2[C@H]2C[C@@H]1c1nc3ccc(C#C[C@@H](C)NCC)cc3n12 [Example 54, (7R,14R)-1-(difluoromethoxy)-11-((R)-3-(ethylamino)but-1-yn-1-yl)-6-(methyl-d3)-6,7-dihydro-7,14-methanobenzo[f]benzo[4,5]imidazo[1,2-a][1,4]diazocin-5(14H)-one]
22 | 10000 to 30000 | [2H]C([2H])([2H])N1C(=O)c2cccc(OC(F)F)c2[C@H]2C[C@@H]1c1nc3ccc(C#C[C@H](C)NCC)cc3n12 [Example 55, (7R,14R)-1-(difluoromethoxy)-11-((S)-3-(ethylamino)but-1-yn-1-yl)-6-(methyl-d3)-6,7-dihydro-7,14-methanobenzo[f]benzo[4,5]imidazo[1,2-a][1,4]diazocin-5(14H)-one]
23 | 10000 to 30000 | [2H]C([2H])([2H])N1C(=O)c2cccc(OC(F)F)c2[C@H]2C[C@@H]1c1nc3ccc(C#C[C@H]4CCCN4)cc3n12 [Example 58, (7R,14R)-1-(difluoromethoxy)-6-(methyl-d3)-11-(((R)-pyrrolidin-2-yl)ethynyl)-6,7-dihydro-7,14-methanobenzo[f]benzo[4,5]imidazo[1,2-a][1,4]diazocin-5(14H)-one]

Same assay, conditions: IC50 value, HEK Blue TNFα reporter cells; TNF-α 100 μg/ml; 24 hrs at 37° C.; inhibition of secreted alkaline phosphatase

Row | IC50 [nM] | Compound
24 | < 100 | [2H]C([2H])([2H])N1C(=O)c2cccc(OC(F)F)c2[C@H]2C[C@@H]1c1nc3ccc(C#CC(=O)OCC)cc3n12 [Example 40, ethyl 3-((7R,14R)-1-(difluoromethoxy)-6-(methyl-d3)-5-oxo-5,6,7,14-tetrahydro-7,14-methanobenzo[f]benzo[4,5]imidazo[1,2-a][1,4]diazocin-11-yl)propiolate]
